Measurements taken from patent US20250031697A1, “METHODS AND COMPOSITIONS TO PREVENT PLANT PESTS AND PATHOGENS” (Impello Biosciences, Inc., priority 2021, published 2025).
Values joined by “and” are separate entries in the source; they are usually repeats but may differ in a detail not shown here. Equal entries are not always repeated.

Assays:
Type in all cases: in vivo
Botrytis = experiment: Field trial, MDJ foliar spray on 'Maverick' strawberries, Botrytis incidence on berries; conditions: MDJ approx. 5 mM, 50 gallons per acre, two foliar sprays
Procedure: Methyl dihydrojasmonate (MDJ) was applied to fields of strawberry to investigate the efficacy of MDJ in preventing Botriytis disease. A composition comprising 22.6% w/v MDJ, 49.8% v/v TWEEN-20, and water was diluted at a rate of 32 oz. (1 liter) per 50 gallons of water (approximately a 5 mM solution of MDJ). The composition was then applied (at a rate of 50 gallons per acre) to an acre of ‘Maverick’ strawberries grown in Watsonville, CA on Aug. 18, 2021 and again on Sep. 2, 2021 using an electrostatic backpack sprayer (foliar spray). Plants were harvested in October 2021. MDJ plants were compared to strawberries treated with the grower standard; a rotation of Pristine® (pyraclostrobin and boscalid), Merivon® (pyraclostrobin), Luna® (fluopyram and trifloxystrobin), and Elevate® (fenhexamid). […] Out of four replicates of 10 plants each, the average incidence of Botrytis on berries in the MDJ treated acre was 11%, compared to 18.75% in the grower standard population.

[1] = system: powdery mildew (Erysiphe necator); experiment: Vineyard trial, MDJ on cabernet sauvignon grapes, powdery mildew on leaf and fruit samples under the microscope; conditions: MDJ approx. 5 mM, 50 gallons per acre, four applications; grape leaf and fruit samples
Procedure: Methyl dihydrojasmonate (MDJ) was applied to fields of grape to investigate the efficacy of MDJ in preventing bunch rot on (Botrytis cinerea) and powdery mildew (Erysiphe necator) on grapes. A composition comprising 22.6% w/v MDJ, 49.8% v/v TWEEN-20, and water was diluted at a rate of 32 oz. (1 liter) per 50 gallons of water (approximately a 5 mM solution of MDJ). The composition was then applied (at a rate of 50 gallons per acre) to three acres (1245 vines/acre) of a cabernet sauvignon variety grown in Napa Valley, CA. There was a total of four applications between June and September using a ground spray rig. Several leaf and fruit samples were collected to access the presence of powdery mildew under the microscope and compared to leaf and fruit of plants treated with the grower standard.

[2] = system: bunch rot (Botrytis cinerea); experiment: Vineyard trial, MDJ on cabernet sauvignon grapes, laccase analysed as measure of Botrytis prevalence; conditions: MDJ approx. 5 mM, 50 gallons per acre, four applications, control = grower standard
Procedure: Methyl dihydrojasmonate (MDJ) was applied to fields of grape to investigate the efficacy of MDJ in preventing bunch rot on (Botrytis cinerea) and powdery mildew (Erysiphe necator) on grapes. A composition comprising 22.6% w/v MDJ, 49.8% v/v TWEEN-20, and water was diluted at a rate of 32 oz. (1 liter) per 50 gallons of water (approximately a 5 mM solution of MDJ). The composition was then applied (at a rate of 50 gallons per acre) to three acres (1245 vines/acre) of a cabernet sauvignon variety grown in Napa Valley, CA. There was a total of four applications between June and September using a ground spray rig. To investigate the prevalence of Botrytis, the enzyme laccase was analyzed. Laccase can negatively impact wine by causing premature browning of bottled white wine and color degradation in red wine. The MDJ treated group had 2 units/ml, whereas the control (grower standard) had 5 units/ml. This level in the control means that Botrytis problems can be expected during the wine making process, whereas in the MDJ treated group, the value of 2 units/ml means there will be no issues with Botrytis during the wine making process.

Botrytis cinerea = experiment: Hemp inoculated with Botrytis cinerea, visual disease score 0-5 at harvest; conditions: 8 replicates
Procedure: Culturing Botrytis cinerea: A Botrytis cinerea isolate was cultured onto potato-dextrose agar (PDA). It was resisolated by taking a mycelial plug from the edge of actively growing cultures every 2-3 weeks to maintain active growing culture. It was maintained at 20° C. under continuous light (˜58 pEin m^−2 s^−1).
Inoculating hemp: The inoculum was prepared by flooding a full grown B. cinerea PDA plate with DI water and 0.1% Tween-20 to create a suspension of fungal spores. Spore count was quantified.
In the first inoculation, a suspension of 1.2×10^4 spores of B. cinerea/mL was created, and 1.5 mL was applied to the top cola/inflorescence of each plant. Hemp was inoculated in the first week of flowering, with application to the underdeveloped inflorescences.
In the second inoculation, a suspension of 1.5×10^5 spores of B. cinerea/mL was created, and sucrose was added to 1% concentration, and the plants were sprayed until drip using a backpack sprayer.
Inoculated plants were placed in a growth chamber or controlled growth environment with a constant temperature of 20-25° C. and 50-70% relative humidity.
Treatment Conditions: Treatments comprising 1 mM or 5 mM jasmonate (MDJ) were applied alone or alongside a biological (Continuum™). These treatment conditions were compared to control (no MDJ, no biological). Each treatment group had 8 replicates. […]

## CCCCCC1C(=O)CCC1CC(=O)OC (stereo not drawn) [MDJ, methyl dihydrojasmonate]
Botrytis; average of four replicates of 10 plants each
  Average % incidence of Botrytis on berries: 11%
Botrytis; single replicates 1-4, 10 plants each, strawberry berries
  % incidence of Botrytis: 10% and 16% and 7% and 11%
[1]
  Control of powdery mildew compared to grower standard: the same, or better, control of powdery mildew as the grower standard
[2]
  Laccase: 2 units/ml
Botrytis cinerea; condition B: 1 mM MDJ foliar spray
  Average Disease Score: 2.625
Botrytis cinerea; condition C: 5 mM MDJ foliar spray
  Average Disease Score: 2.250
